# Measurements: patent publication US4416885A, “Use of isopropylaminopyrimidine in the chemotherapy of muscular dystrophy, myopathy and myotonia” (priority 1982, dated 1983)
# Columns and labels:
# Format in all cases: in vivo, chicken
# normal chickens 412 = test: Experiment 4, flip test (25 flips), normal chickens
# Protocol: (§1) All chickens were injected with 50 mg/Kg IAPP and weighed approximately every second or third day.
# (§2) B, C, D: Experimental-injected with 50 mg/Kg IAPP
# [1] = tested on: normal 412 muscle explants; test: Microtubule complexes in muscle explants of injected normal chickens
# Excerpt: Essentially, these experiments were divided into three subgroups, taken from the previous Table:
# 413A, 413B, 412A, 412B: All were sacrificed after 4 injections and muscle explants placed in culture.
# 413C, 412C: All were sacrificed after 8 injections and muscle explants were placed in culture.
# 413D, 412D: All were sacrificed after 10 injections and muscle explants placed in culture.
# All explants were placed in CMRL culture medium containing 5% horse serum, 15% fetal bovine serum and 1% antibiotics and allowed to grow for 5-7 days before being fixed and observed for the presence or absence of microtubules. No IAPP was added to the culture medium during the 5-7 days in culture.
# dystrophic chickens 413 = test: Experiment 4, flip test (25 flips), dystrophic chickens
# Protocol: as §1, §2
# [2] = tested on: plasma PK (pyruvate kinase); test: Plasma PK
# Protocol: (§3) Chemotherapy was assessed by application of seven different parameters: physical tests of muscular disability, namely the flip test and wing apposition (W.A.) measurements; biochemical assays of serum and muscle enzume levels of creatine phosphokinase (CPK), pyruvate kinase (PK) and acetylcholinesterase (AChE); and histological comparisons of treated and untreated muscle. Toxicity studies (weight loss, etc.) were also used. A very comprehensive profile of the drug was thus obtained which related to all the known, highly characteristic features of the disease which are applicable to both the animal model and the human.
# A massive rise in this enzyme level also occurs in the dystrophic chicken compared to the normal control, as it does in the human disease.
# The drug was administered daily in water, injected intra-peritoneally, the amount being adjusted on a weekly basis according to the animal's weight.
# (§4) Finally, oral therapy with IAPP was undertaken at gradually increasing dosages up to 1 g/Kg/day. The parameters (physical, biochemical and histological) measured previously were again used to test the efficacy of the drug; five different dosages were used orally, each being given for 30-60 days, daily (Tables VII-XI). A total of 75 animals were treated in the current study with IAPP and 70 control animals were used.
# [3] = tested on: plasma AChE (acetylcholinesterase); test: Plasma AChE; parameters: AChE: unit not given here
# Protocol: as §3
# The elevation of this enzyme in the dystrophic chicken occurs from 8 days and reaches a plateau at 100 days, compared to the normal animal where the levels continue to decline slowly. […]
# as §4
# [4] = 200 mg/Kg i.p. daily for 30 days, day 28 ex ovo
# [5] = 200 mg/Kg i.p. daily for 30 days, day 56 ex ovo
# [6] = 200 mg/Kg i.p. daily for 30 days, day 84 ex ovo
# [7] = 300 mg/Kg i.p. daily for 30 days, day 28 ex ovo
# [8] = 300 mg/Kg i.p. daily for 30 days, day 56 ex ovo
# [9] = 300 mg/Kg i.p. daily for 30 days, day 84 ex ovo
# [10] = 300 mg/Kg i.p. three times weekly for 30 days, day 84 ex ovo
# [11] = Exp. 2, 40 mg/Kg i.p. daily, day 42-48
# [12] = Table VII, oral 200 mg/Kg, 60 days, day 28 ex ovo
# [13] = Table VII, oral 200 mg/Kg, 60 days, day 35 ex ovo
# [14] = oral 300 mg/Kg daily, day 28 ex ovo
# [15] = oral 300 mg/Kg daily, day 35 ex ovo
# [16] = oral 450 mg/Kg daily for 45 days, day 35 ex ovo
# [17] = oral 450 mg/Kg daily for 45 days, day 50 ex ovo
# [18] = oral 600 mg/Kg daily, day 35 ex ovo
# [19] = oral 600 mg/Kg daily, day 50 ex ovo
# [20] = oral 1 g/Kg daily, day 28 ex ovo
# [21] = oral 1 g/Kg daily, day 35 ex ovo
# [22] = 200 mg/Kg i.p. daily for 30 days, day 45 ex ovo
# [23] = 300 mg/Kg i.p. daily for 30 days, day 45 ex ovo
# [24] = 300 mg/Kg i.p. three times weekly for 30 days, day 45 ex ovo
# [25] = oral 450 mg/Kg daily for 45 days, day 28 ex ovo
# [26] = oral 600 mg/Kg daily, day 28 ex ovo
smiles,measurement,setting,value
"CC(C)Nc1ncccn1.O=P(O)(O)O [IAPP, 2-isopropylaminopyrimidine orthophosphate]",Fatigue in flip test,"normal chickens 412; 412D, day 25, 50 mg/Kg",did not fatigue
same,Flip test outcome,"normal chickens 412; normal drug injected chickens, 50 mg/Kg",able to pass the flip test
same,% Full Complexes Microtubules,"[1]; 412B, Subgroup A, after 4 injections of 50 mg/Kg, 412A control 86%",73%
same,% Full Complexes Microtubules,"[1]; 412C, Subgroup B, after 8 injections of 50 mg/Kg",76%
same,% Full Complexes Microtubules,"[1]; 412D, Subgroup C, after 10 injections of 50 mg/Kg",80%
same,Number of flips at which animal fatigued,"dystrophic chickens 413; 413D experimental animal, day 25, 50 mg/Kg",19 flips
same,Flip test outcome,"dystrophic chickens 413; dystrophic drug injected chickens, 50 mg/Kg",able to pass the flip test
same,PK,[2]; [4],377
same,"PK, % change from control",[2]; [4],-47%
same,PK,[2]; [5],1612
same,"PK, % change from control",[2]; [5],-45%
same,PK,[2]; [6],2949
same,"PK, % change from control",[2]; [6],-36%
same,PK,[2]; [7],429
same,"PK, % change from control",[2]; [7],-40%
same,PK,[2]; [8],2447
same,"PK, % change from control",[2]; [8],-16%
same,PK,[2]; [9],5282
same,"PK, % change from control",[2]; [9],+15%
same,"PK, % change from control","[2]; 300 mg/Kg i.p. three times weekly for 30 days, day 28 ex ovo",-30%
same,PK,"[2]; 300 mg/Kg i.p. three times weekly for 30 days, day 56 ex ovo",2486
same,PK,[2]; [10],3766
same,"PK, % change from control",[2]; [10],-18%
same,% PK Change vs untreated dystrophic controls,"[2]; Exp. 2, 40 mg/Kg i.p. daily, day 14-20",-38%
same,% PK Change vs untreated dystrophic controls,"[2]; Exp. 2, 40 mg/Kg i.p. daily, day 21-27",-57%
same,% PK Change vs untreated dystrophic controls,"[2]; Exp. 2, 40 mg/Kg i.p. daily, day 28-34",-60%
same,% PK Change vs untreated dystrophic controls,"[2]; Exp. 2, 40 mg/Kg i.p. daily, day 35-41",-48%
same,% PK Change vs untreated dystrophic controls,[2]; [11],-58%
same,% PK Change vs untreated dystrophic controls,"[2]; Exp. 2, 40 mg/Kg i.p. daily, day 56-62",-42%
same,% PK Change vs untreated dystrophic controls,"[2]; Exp. 2, 40 mg/Kg i.p. daily, day 63-71",-41%
same,% PK Change vs untreated dystrophic controls,"[2]; Exp. 3, 70 mg/Kg i.p. daily, day 21-27",-32%
same,% PK Change vs untreated dystrophic controls,"[2]; Exp. 3, 70 mg/Kg i.p. daily, day 28-34",-65%
same,PK,[2]; [12],1925
same,"PK, % change from control",[2]; [12],-4%
same,PK,[2]; [13],2150
same,"PK, % change from control",[2]; [13],+6%
same,PK,[2]; [14],2010
same,"PK, % change from control",[2]; [14],+1%
same,PK,[2]; [15],907
same,"PK, % change from control",[2]; [15],+28%
same,PK,[2]; [16],2520
same,"PK, % change from control",[2]; [16],+0.6%
same,PK,[2]; [17],3891
same,"PK, % change from control",[2]; [17],+7%
same,PK,[2]; [18],1639
same,"PK, % change from control",[2]; [18],-36%
same,PK,[2]; [19],2824
same,"PK, % change from control",[2]; [19],-22%
same,PK,[2]; [20],1080
same,"PK, % change from control",[2]; [20],-48%
same,PK,[2]; [21],1812
same,"PK, % change from control",[2]; [21],-50%
same,AChE,[3]; [22],60.4
same,"AChE, % change from control",[3]; [22],-29%
same,AChE,[3]; [6],87
same,"AChE, % change from control",[3]; [6],-46%
same,AChE,[3]; [23],48.4
same,"AChE, % change from control",[3]; [23],-43%
same,AChE,[3]; [24],62.9
same,"AChE, % change from control",[3]; [24],-27%
same,AChE,[3]; [10],90
same,"AChE, % change from control",[3]; [10],-45%
same,% AChE Change vs untreated dystrophic controls,[3]; [11],-55%
same,AChE,[3]; [13],77.8
same,"AChE, % change from control",[3]; [13],-6%
same,AChE,[3]; [25],520
same,"AChE, % change from control",[3]; [25],-12%
same,AChE,[3]; [26],46.9
same,"AChE, % change from control",[3]; [26],-21%
same,AChE,[3]; [21],53.9
same,"AChE, % change from control",[3]; [21],-47%
